# Results from article PMC5126668 (PeerJ, 2016).
# “And” between values parts separate entries of the source, which are not always exact repeats. Equal values may be shown once. Read-outs that look alike come from different tables or passages of the source.
# What was measured:
# CYP1A2 = target: T1, CYP1A2 (Homo sapiens, UniProt P05177); test: Inhibition of CYP activities by GA in HLMs (phenacetin); type: biochemical
# T1 construct: tissue iPhase Pharmaceutical Services (Beijing, China) Lot # 7MMC011; host or cells: pooled human liver microsomes
# T1 sequence (P05177 1-516): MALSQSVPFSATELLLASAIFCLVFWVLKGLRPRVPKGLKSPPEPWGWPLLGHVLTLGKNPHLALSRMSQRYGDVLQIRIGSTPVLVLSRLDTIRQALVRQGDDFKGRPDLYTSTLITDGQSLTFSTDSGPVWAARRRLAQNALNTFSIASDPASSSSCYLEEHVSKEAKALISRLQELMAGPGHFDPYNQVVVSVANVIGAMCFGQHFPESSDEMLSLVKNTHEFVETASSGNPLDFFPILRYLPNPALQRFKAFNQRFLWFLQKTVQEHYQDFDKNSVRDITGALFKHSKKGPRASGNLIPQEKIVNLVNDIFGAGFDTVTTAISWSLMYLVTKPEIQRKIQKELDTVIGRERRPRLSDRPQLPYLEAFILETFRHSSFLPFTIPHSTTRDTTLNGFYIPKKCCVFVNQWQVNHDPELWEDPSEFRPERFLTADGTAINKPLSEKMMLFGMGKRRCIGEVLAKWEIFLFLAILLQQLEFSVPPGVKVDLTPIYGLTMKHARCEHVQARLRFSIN
# Method: (§1) The samples containing HLMs were prepared in an ice bath, and three replicates of each dose were tested.
# (§2) The reaction system consisted of 0.5 g/L HLMs, 1 mM NADPH, 25 µM phenacetin (CYP1A2 substrate), 25 µM tolbutamide (CYP2C9 substrate), 25 µM mephenytoin (CYP2C19 substrate), 10 µM dextromethorphan (CYP2D6 substrate) and 10 µM midazolam (CYP3A4 substrate). After incubation at 37 °C for 30 min, 200 µL of methanol containing 100 µg/L propranolol hydrochloride was added to terminate the reaction. The samples were then treated, and the corresponding substrate metabolites of CYP isoforms were detected according to a previously described method ([Shen et al., 2013]).
# CYP2C9 = target: T2, CYP2C9 (Homo sapiens, UniProt P11712); test: Inhibition of CYP activities by GA in HLMs (tolbutamide); type: biochemical
# T2 construct: tissue iPhase Pharmaceutical Services (Beijing, China) Lot # 7MMC011; host or cells: pooled human liver microsomes
# Method: as §1, §2
# [1] = BAK exposure in rat liver and kidney 24 h after dosing; type: in vivo, Sprague–Dawley rats; conditions: for concentration at 24 h: Sprague-Dawley, po, 200 mg/kg
# Method: The liver and kidney tissue were also collected from individual rats 24 h after dosing, weighed and then homogenized in saline solution (0.6 g wet weight/mL) on ice. Subsequently, 10 µL of internal standard solution (tanshinone II A, 10 µg/mL) and 0.3 mL of acetonitrile were added to 0.1 mL of plasma or homogenates, and centrifuged at 13,300 rpm for 15 min after 2 min of vortexing. The supernatant was reconstituted in 100 µL of mobile phase after drying under 40 °C nitrogen, the mixture then was vortexed for 5 min and centrifuged at 13,300 rpm for 15 min. Finally, 20 µL of supernatant was injected for HPLC analysis. […] The mobile phase consisted of methanol and water with 0.1% formic acid (89:11, v/v) and was supplied at a flow rate of 0.8 mL/min. The detection wavelength was set to 262 nm. […] The recovery was >93%.
# [2] = Toxicokinetics of BAK in rat plasma after a single oral dose; type: in vivo, Sprague–Dawley rats
# Method: ABT, a broad-spectrum nonspecific CYP inhibitor, was selected as a positive control inhibitor of CYP enzymes. Aristolochic acid A (AA I) was selected as the nephrotoxicity positive control in the study.
# The plasma samples were separated by centrifugation at 4000 rpm for 15 min. […] Subsequently, 10 µL of internal standard solution (tanshinone II A, 10 µg/mL) and 0.3 mL of acetonitrile were added to 0.1 mL of plasma or homogenates, and centrifuged at 13,300 rpm for 15 min after 2 min of vortexing. The supernatant was reconstituted in 100 µL of mobile phase after drying under 40 °C nitrogen, the mixture then was vortexed for 5 min and centrifuged at 13,300 rpm for 15 min. Finally, 20 µL of supernatant was injected for HPLC analysis.
# The mobile phase consisted of methanol and water with 0.1% formic acid (89:11, v/v) and was supplied at a flow rate of 0.8 mL/min. The detection wavelength was set to 262 nm.
# [3] = Sprague-Dawley, plasma, rat, single oral, BAK 200 mg/kg, with ABT or GA 100 mg/kg where named
# [4] = rat, single oral, BAK 200 mg/kg, with ABT or GA 100 mg/kg where named
# T2 sequence (P11712 whole entry): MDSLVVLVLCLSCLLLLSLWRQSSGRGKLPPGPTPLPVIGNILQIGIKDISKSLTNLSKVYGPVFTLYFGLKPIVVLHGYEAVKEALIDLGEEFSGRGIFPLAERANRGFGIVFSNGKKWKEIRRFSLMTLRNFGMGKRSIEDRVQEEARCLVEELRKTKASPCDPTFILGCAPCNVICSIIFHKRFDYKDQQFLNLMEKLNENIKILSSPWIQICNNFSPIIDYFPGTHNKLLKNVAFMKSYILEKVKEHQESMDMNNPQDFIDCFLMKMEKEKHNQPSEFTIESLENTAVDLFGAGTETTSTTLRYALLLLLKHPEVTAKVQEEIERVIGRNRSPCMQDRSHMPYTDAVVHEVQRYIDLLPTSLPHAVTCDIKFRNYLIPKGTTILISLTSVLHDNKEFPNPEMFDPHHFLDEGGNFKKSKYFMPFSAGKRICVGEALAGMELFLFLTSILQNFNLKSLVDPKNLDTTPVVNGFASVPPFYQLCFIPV
structure (smiles),measurement,setting,value
"CC1(C)[C@@H](O)CC[C@]2(C)[C@H]3C(=O)C=C4[C@@H]5C[C@@](C)(C(=O)O)CC[C@]5(C)CC[C@@]4(C)[C@]3(C)CC[C@@H]12 [GA, Glycyrrhetinic acid]",IC50,"CYP1A2; HLMs, 30 min pre-incubation with NADPH, phenacetin 25 µM",61.1 ± 1.13 µM
same,"activity at 30 min, 156.25 µM","CYP1A2; human, human liver microsomes (HLMs), probe phenacetin 25 µM, CYP1A2-30min, GA 156.2500, vs control, read-out: Relative activity (%)",18.2%
same,"activity at 30 min, 312.5 µM","CYP1A2; human, human liver microsomes, probe phenacetin 25 µM, CYP1A2-30min, GA 312.5000, vs control, read-out: Relative activity (%)",14.1%
same,"activity at 30 min, 1000 µM","CYP1A2; human, human liver microsomes, probe phenacetin 25 µM, CYP1A2-30min, GA 1000.0000, vs control, read-out: Relative activity (%)",5.73%
same,"activity at 30 min, […]","CYP1A2; human, human liver microsomes, probe phenacetin 25 µM, read-out: Relative activity (%)",10.3%
same,"activity at 30 min, 0.1 µM","CYP1A2; human, human liver microsomes, probe phenacetin (25 µM), CYP1A2-30min, GA 0.1000, vs control, read-out: Relative activity (%)",95%
same,"activity at 30 min, 1 µM","CYP1A2; human, human liver microsomes, probe phenacetin (25 µM), CYP1A2-30min, GA 1.0000, vs control, read-out: Relative activity (%)",84.3%
same,"activity at 30 min, 6.25 µM","CYP1A2; human, human liver microsomes, probe phenacetin (25 µM), CYP1A2-30min, GA 6.2500, vs control, read-out: Relative activity (%)",89.2%
same,"activity at 30 min, 31.25 µM","CYP1A2; human, human liver microsomes, probe phenacetin (25 µM), CYP1A2-30min, GA 31.2500, vs control, read-out: Relative activity (%)",70.9%
same,"activity at 30 min, 100 µM","CYP1A2; human, human liver microsomes, probe phenacetin (25 µM), CYP1A2-30min, GA 100.0000, vs control, read-out: Relative activity (%)",31%
same,IC50,"CYP2C9; HLMs, 30 min pre-incubation with NADPH, tolbutamide 25 µM",26.5 ± 3.08 µM
same,"activity at 30 min, 0.1 µM","CYP2C9; human, human liver microsomes, probe tolbutamide 25 µM, CYP2C9-30min, GA 0.1000, vs control, read-out: Relative activity (%)",114%
same,"activity at 30 min, 1 µM","CYP2C9; human, human liver microsomes, probe tolbutamide 25 µM, CYP2C9-30min, GA 1.0000, vs control, read-out: Relative activity (%)",81%
same,"activity at 30 min, 6.25 µM","CYP2C9; human, human liver microsomes, probe tolbutamide 25 µM, CYP2C9-30min, GA 6.2500, vs control, read-out: Relative activity (%)",76.2%
same,"activity at 30 min, 31.25 µM","CYP2C9; human, human liver microsomes, probe tolbutamide 25 µM, CYP2C9-30min, GA 31.2500, vs control, read-out: Relative activity (%)",56.1%
same,"activity at 30 min, 100 µM","CYP2C9; human, human liver microsomes, probe tolbutamide 25 µM, CYP2C9-30min, GA 100.0000, vs control, read-out: Relative activity (%)",48.9%
same,"activity at 30 min, 156.25 µM","CYP2C9; human, human liver microsomes, probe tolbutamide 25 µM, CYP2C9-30min, GA 156.2500, vs control, read-out: Relative activity (%)",46.2%
same,"activity at 30 min, 312.5 µM","CYP2C9; human, human liver microsomes, probe tolbutamide 25 µM, CYP2C9-30min, GA 312.5000, vs control, read-out: Relative activity (%)",18.1%
same,"activity at 30 min, […]","CYP2C9; human, human liver microsomes, probe tolbutamide 25 µM, read-out: Relative activity (%)",35.9%
same,"activity at 30 min, 1000 µM","CYP2C9; human, human liver microsomes, probe tolbutamide (25 µM), CYP2C9-30min, GA 1000.0000, vs control, read-out: Relative activity (%)",14.9%
"C=C[C@@](C)(/C=C/c1ccc(O)cc1)CCC=C(C)C [BAK, Bakuchiol]",BAK in kidney relative to liver,[1]; 24 h after administration,1.37- to 1.54 fold
same,"Exposure of BAK, Kidney, single rats",[1]; 24 h after single oral dose,0.7466 µg/g and 0.7844 µg/g and 0.7813 µg/g and 0.8035 µg/g
same,"Exposure of BAK, Liver, single rats",[1]; 24 h after single oral dose,0.5617 µg/g and 0.5502 µg/g and 0.5630 µg/g and 0.5314 µg/g
same,concentration at 24 h,"[1]; kidney, 24 h after single oral dose, read-out: Exposure of BAK, Kidney, mean",755 ng/g
same,concentration at 24 h,"[1]; kidney, 24 h after single oral dose, read-out: Exposure of BAK, Kidney, single rats",661 ng/g
same,concentration at 24 h,"[1]; liver, 24 h after single oral dose, read-out: Exposure of BAK, Liver, mean",548 ng/g
same,concentration at 24 h,"[1]; liver, 24 h after single oral dose, read-out: Exposure of BAK, Liver, single rats",531 ng/g
same,"BAK concentration in rat plasma, single rats 1-5",[2]; 0.083 h after single oral dose,19.440 ng/mL and 20.126 ng/mL and 124.551 ng/mL and 203.437 ng/mL and 45.002 ng/mL
same,"BAK concentration in rat plasma, single rats 1-5",[2]; 0.500 h after single oral dose,298.348 ng/mL and 315.739 ng/mL and 248.132 ng/mL and 249.198 ng/mL
same,"BAK concentration in rat plasma, single rats 1-5",[2]; 1.000 h after single oral dose,370.910 ng/mL and 622.012 ng/mL and 388.077 ng/mL and 359.422 ng/mL and 237.838 ng/mL
same,"BAK concentration in rat plasma, single rats 1-5",[2]; 2.000 h after single oral dose,741.835 ng/mL and 1388.336 ng/mL and 509.873 ng/mL and 610.667 ng/mL and 641.059 ng/mL
same,"BAK concentration in rat plasma, single rats 1-5",[2]; 4.000 h after single oral dose,1167.913 ng/mL and 614.550 ng/mL and 628.766 ng/mL and 924.718 ng/mL
same,"BAK concentration in rat plasma, single rats 1-5",[2]; 8.000 h after single oral dose,297.448 ng/mL and 580.240 ng/mL and 453.584 ng/mL and 180.567 ng/mL and 336.676 ng/mL
same,"BAK concentration in rat plasma, single rats 1-5",[2]; 12.00 h after single oral dose,101.667 ng/mL and 221.273 ng/mL and 140.087 ng/mL and 93.481 ng/mL and 214.562 ng/mL
same,"BAK concentration in rat plasma, single rats 1-5",[2]; 24.00 h after single oral dose,76.407 ng/mL and 58.961 ng/mL and 54.579 ng/mL and 73.723 ng/mL
same,Cmax,[2]; [3],887 ± 281 ng/mL
same,MRT,[2]; [3],6.79 ± 0.43 h
same,Tmax,[2]; [3],3.6 ± 0.89 h
same,AUC(0-t),"[2]; Sprague-Dawley, plasma, rat, single oral, BAK 200 mg/kg, with ABT or GA 100 mg/kg where named, read-out: AUC0−24 of BAK",7260 ng·h/mL
same,concentration at 0.083 h,"[2]; Sprague-Dawley, rat, plasma, po, 200 mg/kg, 0.083 h after single oral dose",82.5 ng/mL
same,concentration at 0.5 h,"[2]; Sprague-Dawley, rat, plasma, po, 200 mg/kg, 0.500 h after single oral dose, read-out: BAK concentration in rat plasma, mean",273 ng/mL
same,concentration at 0.5 h,"[2]; Sprague-Dawley, rat, plasma, po, 200 mg/kg, 0.500 h after single oral dose, read-out: BAK concentration in rat plasma, single rats 1-5",256 ng/mL
same,concentration at 1 h,"[2]; Sprague-Dawley, rat, plasma, po, 200 mg/kg, 1.000 h after single oral dose",396 ng/mL
same,concentration at 2 h,"[2]; Sprague-Dawley, rat, plasma, po, 200 mg/kg, 2.000 h after single oral dose",778 ng/mL
same,concentration at 4 h,"[2]; Sprague-Dawley, rat, plasma, po, 200 mg/kg, 4.000 h after single oral dose, read-out: BAK concentration in rat plasma, mean",843 ng/mL
same,concentration at 4 h,"[2]; Sprague-Dawley, rat, plasma, po, 200 mg/kg, 4.000 h after single oral dose, read-out: BAK concentration in rat plasma, single rats 1-5",881 ng/mL
same,concentration at 8 h,"[2]; Sprague-Dawley, rat, plasma, po, 200 mg/kg, 8.000 h after single oral dose",370 ng/mL
same,concentration at 12 h,"[2]; Sprague-Dawley, rat, plasma, po, 200 mg/kg, 12.00 h after single oral dose",154 ng/mL
same,concentration at 24 h,"[2]; Sprague-Dawley, rat, plasma, po, 200 mg/kg, 24.00 h after single oral dose, read-out: BAK concentration in rat plasma, mean",68.1 ng/mL
same,concentration at 24 h,"[2]; Sprague-Dawley, rat, plasma, po, 200 mg/kg, 24.00 h after single oral dose, read-out: BAK concentration in rat plasma, single rats 1-5",76.9 ng/mL
same,concentration at 24 h,"[2]; Sprague-Dawley, rat, plasma, po, 200 mg/kg, rat, 24 h after single oral dose, read-out: Exposure of BAK, Plasma, mean",68.1 ng/g
same,concentration at 24 h,"[2]; Sprague-Dawley, rat, plasma, po, 200 mg/kg, rat, 24 h after single oral dose, read-out: Exposure of BAK, Plasma, single rats",76.9 ng/g
same,"Exposure of BAK, Plasma, single rats","[2]; rat, 24 h after single oral dose",0.0764 µg/g and 0.0590 µg/g and 0.0546 µg/g and 0.0737 µg/g
same,CL of BAK,[2]; [4],470 ± 132 mL/min/kg
same,V of BAK,[2]; [4],184.2 ± 58.6 L/kg
same,t1∕2 of BAK,[2]; [4],4.71 ± 1.56 h
